This note sets out measurements from patent publication US7235252B2, “Method of preparing organic peroxyacids” (priority 2002, dated 2007).

A short description of series [1]: Peracetic acid formation rate and stability with N-acyl donors in parent solution (double titration). It is filed as physicochemical. Particulars: equimolar N-acyl donor dispersed in parent solution. The source says: The other conditions (temperature, humidity, generator composition) being the same, equimolar amounts of the three N-acyl donors were dispersed in the parent solution to determine the formation rate of peracetic acid in the solution and the stability with time of such a concentration. The method adopted for quantitative determination of organic peroxyacid in the presence of a large excess of hydrogen peroxide (in this and in the following tests) was a sequential double-titration, the first of which is a permanganometric test designed to titre and eliminate any hydrogen peroxide in excess, and this was immediately followed by an iodometric titration to determine the concentration of the remaining organic peroxide. The results are shown below, both as activation rate (see FIG. 1), and stability of the peracetic acid concentration (see FIG. 2) are concerned.

Series [2] in a line: Preliminary assessment of acetyl donating compounds. It is filed as physicochemical. The source says:
Search work was initially directed towards finding out the best N-acyl and/or O-acyl activator of all those available and disclosed in the prior art referred to above. The features sought for in this initial search were: • a rapidly acting acylating agent (i.e. provided with an electrophilic carbonyl carbon) suitable for causing a perhydrolysis reaction due to electron-withdrawing effect on the carbonyl carbon and for providing a sufficiently high concentration of its respective peracid within short times (20–30 minutes) for the specified objects; • a good conservation under standard storage conditions (at temperatures ranging from 20° and 40° C.). • an ability to yield after activation an activated solution in which the organic peroxyacid concentration is as stable as possible. […]

Series [3] concerns bacterial spores (sporicidal activity). The series can be described thus: Minimum effective concentration (CME) by sporicidal activity. It counts as cell-based. Particulars: minimum peracetic acid concentration with sporicidal activity over contact time of 15 minutes. As to the method: In the search study carried out with an endoscope washing machine, the solution was used by operating 10 full daily cycles of high-level disinfection or, better, cold-chemical sterilization for a total of 120 cycles. The contact time set for the sterilization step was 30 minutes. As it will be noted, immediately after activation, the concentration increases at a fast-rate, overcomes the minimum effective concentration level (Minimum Effective Concentration Level ═CME) equal to 0.05% w/v just after 15–20 minutes and reaches a maximum value equal to 0.35% w/v after 24 hours. During the following days, concentration decreases slowly down to a minimum effective level below which the effectiveness set forth below is not provided any longer. This threshold level (CME) was fixed and defined by means of the minimum % concentration of peracetic acid at which a sporicidal activity is still detected over a contact time of 15 minutes.

On to `CC(=O)ON1C(=O)CCC1=O` [N-acetoxysuccinimide], for which, in series [1], the “Stability of peracetic acid concentration with time (FIG. 2)” value (“Stability … (FIG. 2)” below) is listed as “poor stability with time”. The “Stability under standard storage conditions” value in series [2] was “poor stability”.

For `CC(=O)N1CCCCCC1=O` [N-acetylcaprolactam], the “Stability … (FIG. 2)” value in series [1] is “good stability”.

For the compound `CC(=O)N1C(=O)CCC1=O` [N-acetylsuccinimide], the “Stability … (FIG. 2)” value in series [1] is given as “behavior similar to that of N-OSU”. Further, the “Stability under standard storage conditions” value in series [2] was “poor stability”.

For the compound `CC(=O)OO` [peracetic acid], the “Minimum Effective Concentration Level (CME)” value in series [3] is 0.05 % w/v.
